Tests used:
[1] = molecular target: hCA IV (Homo sapiens, UniProt P22748); experiment: stopped-flow CO2 hydrase assay, hCA IV
Text: (§1) An Sx.18Mv-R Applied Photophysics (Oxford, UK) stopped-flow instrument was used to assay the catalytic activity of various CA isozymes for CO2 hydration reaction.[21]

[2] = molecular target: hCA IX (Homo sapiens, UniProt Q16790); experiment: stopped-flow CO2 hydrase assay, hCA IX; conditions: for Selectivity index I/IX: ratio KI hCA I / KI hCA IX; for Selectivity index II/IX: ratio KI hCA II / KI hCA IX
Text: as §1

[3] = molecular target: hCA I (Homo sapiens, UniProt P00915); experiment: stopped-flow CO2 hydrase assay, hCA I; conditions: mean from three assays, stopped-flow technique, errors ± 5–10%
Text: as §1

[4] = molecular target: hCA II (Homo sapiens, UniProt P00918); experiment: stopped-flow CO2 hydrase assay, hCA II
Text: as §1

hCA IV, sequence (P22748 19-312): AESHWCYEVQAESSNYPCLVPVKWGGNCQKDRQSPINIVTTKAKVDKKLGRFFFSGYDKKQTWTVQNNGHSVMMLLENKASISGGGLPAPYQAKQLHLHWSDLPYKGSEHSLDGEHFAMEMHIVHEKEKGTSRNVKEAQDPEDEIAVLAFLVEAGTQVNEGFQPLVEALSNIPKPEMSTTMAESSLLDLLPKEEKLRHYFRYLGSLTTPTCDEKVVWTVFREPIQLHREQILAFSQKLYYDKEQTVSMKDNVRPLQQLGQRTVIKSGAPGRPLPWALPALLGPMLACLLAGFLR
hCA I, sequence (P00915 whole entry): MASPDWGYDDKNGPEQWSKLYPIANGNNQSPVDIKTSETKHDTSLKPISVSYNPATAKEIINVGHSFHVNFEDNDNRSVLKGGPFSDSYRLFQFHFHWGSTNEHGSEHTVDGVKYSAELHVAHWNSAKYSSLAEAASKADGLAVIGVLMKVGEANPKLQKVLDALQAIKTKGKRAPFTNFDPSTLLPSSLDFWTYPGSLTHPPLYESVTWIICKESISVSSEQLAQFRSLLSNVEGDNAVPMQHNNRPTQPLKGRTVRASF

Compound	Ki [1] [nM]	Ki [2] [nM]	Selectivity index I/IX [2]	Selectivity index II/IX [2]	Ki [3] [nM]	Ki [4] [nM]	melting point [°C]	selectivity for hCA IX over hCA I [2]	selectivity for hCA IX over hCA II [2]
NS(=O)(=O)c1ccc(-n2nnc(S(=O)(=O)c3ccccc3)c2-c2ccc(F)cc2)cc1 [Compound 9c, 4-(5-(4-fluorophenyl)-4-(phenylsulphonyl)-1H-1,2,3-triazol-1-yl)benzenesulphonamide]	86.1	66	4.00	0.10	264	6.6	207 to 209		
NS(=O)(=O)c1ccc(-n2nnc(S(=O)(=O)c3ccccc3)c2-c2ccc(Br)cc2)cc1 [Compound 9e, 4-(5-(4-bromophenyl)-4-(phenylsulphonyl)-1H-1,2,3-triazol-1-yl)benzenesulphonamide]	801	30.1	260.40	7.32	7840	220	198 to 200	more than 100 fold	
NS(=O)(=O)c1ccc(-n2nnc(S(=O)(=O)c3ccccc3)c2-c2cccc([N+](=O)[O-])c2)cc1 [Compound 9j, 4-(5-(3-nitrophenyl)-4-(phenylsulphonyl)-1H-1,2,3-triazol-1-yl)benzenesulphonamide]	89.6	26.3			45.4	6.1			
NS(=O)(=O)c1ccc(-n2nnc(S(=O)(=O)c3ccccc3)c2-c2ccccc2)cc1 [Compound 9a, 4-(5-phenyl-4-(phenylsulphonyl)-1H-1,2,3-triazol-1-yl)benzenesulphonamide]	149	21.5	4.55	0.45	97.9	9.6	214 to 216		
COc1ccc(-c2c(S(=O)(=O)c3ccccc3)nnn2-c2ccc(S(N)(=O)=O)cc2)cc1 [Compound 9g, 4-(5-(4-methoxyphenyl)-4-(phenylsulphonyl)-1H-1,2,3-triazol-1-yl)benzenesulphonamide]	493	24.9	314.73	0.25	7840	6.2	235 to 237	more than 100 fold	
NS(=O)(=O)c1ccc(-n2nnc(S(=O)(=O)c3ccccc3)c2-c2cccc(Br)c2)cc1 [Compound 9f, 4-(5-(3-bromophenyl)-4-(phenylsulphonyl)-1H-1,2,3-triazol-1-yl)benzenesulphonamide]	94.8	27.1	16.00	0.34	434	9.2	282 to 284		
NS(=O)(=O)c1ccc(-n2nnc(S(=O)(=O)c3ccccc3)c2-c2ccc(-c3ccccc3)cc2)cc1 [Compound 9k, 4-(5-([1,1′-biphenyl]-4-yl)-4-(phenylsulphonyl)-1H-1,2,3-triazol-1-yl)benzenesulphonamide]	414	24.8	142.86	33.60	3540	833	214 to 216	more than 100 fold	more than 30 fold
NS(=O)(=O)c1ccc(-n2nnc(S(=O)(=O)c3ccccc3)c2-c2ccc(Cl)cc2)cc1 [Compound 9d, 4-(5-(4-chlorophenyl)-4-(phenylsulphonyl)-1H-1,2,3-triazol-1-yl)benzenesulphonamide]	526	25.1	184.42	2.26	4630	56.7	213 to 215	more than 100 fold	
NS(=O)(=O)c1ccc(-n2nnc(S(=O)(=O)c3ccccc3)c2-c2ccc([N+](=O)[O-])cc2)cc1 [Compound 9i, 4-(5-(4-nitrophenyl)-4-(phenylsulphonyl)-1H-1,2,3-triazol-1-yl)benzenesulphonamide]	84.7	32.4			285	4.9			
Cc1ccc(-c2c(S(=O)(=O)c3ccccc3)nnn2-c2ccc(S(N)(=O)=O)cc2)cc1 [Compound 9b, 4-(4-(phenylsulphonyl)-5-(p-tolyl)-1H-1,2,3-triazol-1-yl)benzenesulphonamide]	82.1	30.9		0.25	767	7.8	205 to 207		
COc1ccc(-c2c(S(=O)(=O)c3ccccc3)nnn2-c2ccc(S(N)(=O)=O)cc2)cc1Br [Compound 9h, 4-(5-(3-bromo-4-methoxyphenyl)-4-(phenylsulphonyl)-1H-1,2,3-triazol-1-yl)benzenesulphonamide]	1210	28.8	324.62	1.30	9350	37.6	210 to 212	more than 100 fold	

Continued, values first:

Ki [1] [nM]	Ki [2] [nM]	Selectivity index I/IX [2]	Selectivity index II/IX [2]	Ki [3] [nM]	Ki [4] [nM]	melting point [°C]	selectivity for hCA IX over hCA I [2]	selectivity for hCA IX over hCA II [2]	Compound
78.6	26	23.35	6.20	607	161	172 to 174			NS(=O)(=O)c1cccc(-n2nnc(S(=O)(=O)c3ccccc3)c2-c2ccccc2)c1 [Compound 10a, 3-(5-phenyl-4-(phenylsulphonyl)-1H-1,2,3-triazol-1-yl)benzenesulphonamide]
80.1	25.1	25.33	5.50	636	138	96 to 98			NS(=O)(=O)c1cccc(-n2nnc(S(=O)(=O)c3ccccc3)c2-c2ccc(Br)cc2)c1 [Compound 10e, 3-(5-(4-bromophenyl)-4-(phenylsulphonyl)-1H-1,2,3-triazol-1-yl)benzenesulphonamide]
84.3	28.6	24.10	12.93	689	370	97 to 99			NS(=O)(=O)c1cccc(-n2nnc(S(=O)(=O)c3ccccc3)c2-c2cccc(Br)c2)c1 [Compound 10f, 3-(5-(3-bromophenyl)-4-(phenylsulphonyl)-1H-1,2,3-triazol-1-yl)benzenesulphonamide]
64.4	27			868	35.2				NS(=O)(=O)c1cccc(-n2nnc(S(=O)(=O)c3ccccc3)c2-c2ccc([N+](=O)[O-])cc2)c1 [Compound 10i, 3-(5-(4-nitrophenyl)-4-(phenylsulphonyl)-1H-1,2,3-triazol-1-yl)benzenesulphonamide]
84	24.1			509	44.3				COc1ccc(-c2c(S(=O)(=O)c3ccccc3)nnn2-c2cccc(S(N)(=O)=O)c2)cc1 [Compound 10g, 3-(5-(4-methoxyphenyl)-4-(phenylsulphonyl)-1H-1,2,3-triazol-1-yl)benzenesulphonamide]
78.9	22.8			454	119				NS(=O)(=O)c1cccc(-n2nnc(S(=O)(=O)c3ccccc3)c2-c2ccc(F)cc2)c1 [Compound 10c, 3-(5-(4-fluorophenyl)-4-(phenylsulphonyl)-1H-1,2,3-triazol-1-yl)benzenesulphonamide]
347	21.2	26.71	1.03	566	21.8	186 to 188			Cc1ccc(-c2c(S(=O)(=O)c3ccccc3)nnn2-c2cccc(S(N)(=O)=O)c2)cc1 [Compound 10b, 3-(4-(phenylsulphonyl)-5-(p-tolyl)-1H-1,2,3-triazol-1-yl)benzenesulphonamide]
849	22.6	91.02	9.33	2060	211	74 to 76			NS(=O)(=O)c1cccc(-n2nnc(S(=O)(=O)c3ccccc3)c2-c2ccc(-c3ccccc3)cc2)c1 [Compound 10k, 3-(5-([1,1′-biphenyl]-4-yl)-4-(phenylsulphonyl)-1H-1,2,3-triazol-1-yl)benzenesulphonamide]
1680	26.7			6900	884				NS(=O)(=O)c1cccc(-n2nnc(S(=O)(=O)c3ccccc3)c2-c2cccc([N+](=O)[O-])c2)c1 [Compound 10j, 3-(5-(3-nitrophenyl)-4-(phenylsulphonyl)-1H-1,2,3-triazol-1-yl)benzenesulphonamide]
